# Test results: patent US11970523B2 (priority 2018, dated 2024)
# Experiment: Weight gain slowing test
# Format: in vivo, Male C57bl/6 mice
# Settings: high-fat fed mice, 50 nmol/kg every day for 56 days
# Procedure: Male C57bl/6 mice were fed with high-fat feed for 4 weeks. The mice with body weights greater than 30 g were selected for the test, and were randomly divided into 26 groups, 8 mice per group. […] Fasting body weights of each group of mice on Day 1 and Day 56 were tested, and the average body weight change of each group of mice was examined.
# Male C57bl/6 mice were fed with high-fat feed for 4 weeks. The mice with body weights greater than 30 g were selected for the test, and were randomly divided into 7 groups, 8 mice per group. […] Fasting body weights of each group of mice on Day 1 and Day 56 were tested, and the average body weight change of each group of mice was examined.
# Male C57bl/6 mice were fed with high-fat feed for 4 weeks. The mice with body weights greater than 30 g were selected for the test, and were randomly divided into 8 groups, 8 mice per group. […] Fasting body weights of each group of mice on Day 1 and Day 56 were tested, and the average body weight change of each group of mice was examined.
substance,measurement,setting,value
"Oxyntomodulin [OXM, reference compound]","fasting body weight, Day 1","Table 3, in g (unit assumed)",32.5 ± 0.7
same,"fasting body weight, Day 56","Table 3, in g (unit assumed)",40.3 ± 1.3
same,"fasting body weight, Day 1","Table 5, in g (unit assumed)",31.0 ± 0.8
same,"fasting body weight, Day 56","Table 5, in g (unit assumed)",41.0 ± 0.7
same,"fasting body weight, Day 1","Table 7, in g (unit assumed)",30.5 ± 0.6
same,"fasting body weight, Day 56","Table 7, in g (unit assumed)",39.6 ± 1.3
same,"fasting body weight, Day 1","Table 9, in g (unit assumed)",31.9 ± 0.6
same,"fasting body weight, Day 56","Table 9, in g (unit assumed)",42.1 ± 1.3
same,"fasting body weight, Day 56",Table 11,43.3±
same,"fasting body weight, Day 1","Table 11, in g (unit assumed)",32.7
